Among the data in ChEMBL document CHEMBL1143485, “The synthesis and biological evaluation of dopamine transporter inhibiting activity of substituted diphenylmethoxypiperidines” (Bioorg Med Chem Lett, 2005) are IC50 and Activity values, retold here.

Structures are written as SMILES.

The target in test [1] is Sodium-dependent dopamine transporter (Rattus norvegicus, UniProt P23977). The test is described as follows: Displacement of [125I]RTI-55 dopamine transporter binding in rat striatal membrane. Format: cell membranes, Striatum.
Chain of Sodium-dependent dopamine transporter (P23977 whole entry): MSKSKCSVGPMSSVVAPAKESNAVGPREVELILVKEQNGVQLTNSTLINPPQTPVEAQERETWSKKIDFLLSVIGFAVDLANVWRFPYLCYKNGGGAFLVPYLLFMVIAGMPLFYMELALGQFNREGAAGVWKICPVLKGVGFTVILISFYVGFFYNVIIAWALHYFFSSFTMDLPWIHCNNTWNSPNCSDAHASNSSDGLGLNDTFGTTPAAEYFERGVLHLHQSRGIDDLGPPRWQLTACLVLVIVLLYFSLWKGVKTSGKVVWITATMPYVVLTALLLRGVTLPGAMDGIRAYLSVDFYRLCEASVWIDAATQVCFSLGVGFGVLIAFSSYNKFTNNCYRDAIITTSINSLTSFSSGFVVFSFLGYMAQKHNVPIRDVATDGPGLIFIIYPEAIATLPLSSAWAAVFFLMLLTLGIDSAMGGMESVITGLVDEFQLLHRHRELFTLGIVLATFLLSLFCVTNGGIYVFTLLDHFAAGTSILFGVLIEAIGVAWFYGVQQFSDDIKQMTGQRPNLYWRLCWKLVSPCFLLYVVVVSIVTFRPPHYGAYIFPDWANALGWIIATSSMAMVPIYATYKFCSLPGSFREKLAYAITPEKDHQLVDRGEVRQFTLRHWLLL
The test system of test [2] is Mus musculus. As to the kind of experiment: Locomotor activity in mice after intraperitoneal administration at 17.8 […]. Format: functional.

As to `Cc1cccc(C(OC2CCN(C)CC2)c2ccccc2)c1` (centres undefined), the IC50 – broadly, the midpoint of a concentration-inhibition curve – in test [1] came out at 293 nM.

For `CN1CCC(OC(c2ccccc2)c2ccc(Cl)cc2)CC1` (centres undefined), the IC50 in test [1] is 155 nM. In test [2], the Activity is reported as 5.89 m/3h.

The molecule `CN1CCC(OC(c2ccccc2)c2ccc(F)cc2)CC1` (centres undefined) came in with an IC50 in test [1] of 277 nM.

As for `CN1CCC(OC(c2ccc(F)cc2)c2ccc(F)cc2)CC1`, the Activity in test [2] was found to be 34.8 m/3h.

Take `CN1CCC(OC(c2ccc(Cl)cc2)c2ccc(Cl)cc2)CC1`: the half-inhibitory concentration (IC50) in test [1] is 44 nM. This molecule had an Activity in test [2] of 5.18 m/3h.

`CCCCN1CCC(OC(c2ccc(Cl)cc2)c2ccc(Cl)cc2)CC1` returned an IC50 in test [1] of 12.5 nM. This molecule also yielded an Activity in test [2] of 3.87 m/3h.

For `Fc1ccc(CN2CCC(OC(c3ccc(Cl)cc3)c3ccc(Cl)cc3)CC2)cc1`, the concentration for half-maximal inhibition (IC50) in test [1] was 50.6 nM.

In test [1], `CC(OC1CCN(C)CC1)c1ccc(F)cc1` (centres undefined) registered a half-inhibitory concentration (IC50) of 264 nM. Against the preceding molecule, the IC50 is about 5.2-fold higher.

In the case of `COC(=O)[C@H]1[C@@H](OC(=O)c2ccccc2)C[C@@H]2CC[C@H]1N2C` [COCAINE], the Activity in test [2] was found to be 16.7 m/3h.

For the molecule `Fc1ccc(C(OCCN2CCN(CCCc3ccccc3)CC2)c2ccc(F)cc2)cc1` [VANOXERINE], the Activity in test [2] was 26.3 m/3h.

The molecule `CN1CCC(OC(c2ccccc2)c2ccccc2)CC1` had an Activity in test [2] of 12.2 m/3h.
